Patent publication US10202361B2, “Pyridazinones as herbicides” (E I DU PONT DE NEMOURS AND COMPANY, priority 2014, dated 2019)

Key:
Experiment in all cases: Test D pre-/postemergence controlled growth environment herbicide test
Format in all cases: in vivo
Conditions in all cases: scale 0 to 100
[1] = system: barley, spring (spring barley, Hordeum vulgare)
Outline: (§1)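 Preemergence: seeds sown in silt loam soil and sprayed with test chemicals in a non-phytotoxic solvent mixture containing surfactant. Postemergence: plants grown in peat/vermiculite planting medium and sprayed at 2 to 18 cm (1- to 4-leaf stage). Visual rating versus controls after 14 to 21 d, 0 (no effect) to 100 (complete control).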

[2] = system: barley, winter (winter barley, Hordeum vulgare)
Outline: as §1

[3] = system: buckwheat, wild (wild buckwheat, Polygonum convolvulus)
Outline: as §1

[4] = system: canarygrass (Phalaris minor)
Outline: as §1

[5] = system: deadnettle (henbit deadnettle, Lamium amplexicaule)
Outline: as §1

[6] = system: downy bromegrass (Bromus tectorum)
Outline: as §1

[7] = system: field violet (Viola arvensis)
Outline: as §1

[8] = system: lambsquarters (Chenopodium album)
Outline: as §1

[9] = system: speedwell (bird's-eye speedwell, Veronica persica)
Outline: as §1

[10] = system: wheat, winter (winter wheat, Triticum aestivum)
Outline: as §1

[11] = system: windgrass (Apera spica-venti)
Outline: as §1

Structure (SMILES): Cc1cc(=O)n(-c2ccc(F)cc2)nc1Cc1ccnc(C(F)(F)F)c1 [Compound 1, 2-(4-fluorophenyl)-5-methyl-6-[[2-(trifluoromethyl)-4-pyridinyl]methyl]-3(2H)-pyridazinone]
- Plant response rating ([1]; Postemergence, 31 g ai/ha): 0
- Plant response rating ([1]; Postemergence, 62 g ai/ha): 0
- Plant response rating ([1]; Postemergence, 125 g ai/ha): 5
- Plant response rating ([1]; Postemergence, 250 g ai/ha): 10
- Plant response rating ([1]; Postemergence, 500 g ai/ha): 10
- Plant response rating ([1]; Preemergence, 31 g ai/ha): 0
- Plant response rating ([1]; Preemergence, 62 g ai/ha): 5
- Plant response rating ([1]; Preemergence, 125 g ai/ha): 5
- Plant response rating ([1]; Preemergence, 250 g ai/ha): 30
- Plant response rating ([1]; Preemergence, 500 g ai/ha): 70
- Plant response rating ([2]; Postemergence, 31 g ai/ha): 0
- Plant response rating ([2]; Postemergence, 62 g ai/ha): 0
- Plant response rating ([2]; Postemergence, 125 g ai/ha): 0
- Plant response rating ([2]; Postemergence, 250 g ai/ha): 10
- Plant response rating ([2]; Postemergence, 500 g ai/ha): 15
- Plant response rating ([2]; Preemergence, 31 g ai/ha): 0
- Plant response rating ([2]; Preemergence, 62 g ai/ha): 5
- Plant response rating ([2]; Preemergence, 125 g ai/ha): 5
- Plant response rating ([2]; Preemergence, 250 g ai/ha): 40
- Plant response rating ([2]; Preemergence, 500 g ai/ha): 60
- Plant response rating ([3]; Postemergence, 31 g ai/ha): 20
- Plant response rating ([3]; Postemergence, 62 g ai/ha): 20
- Plant response rating ([3]; Postemergence, 125 g ai/ha): 30
- Plant response rating ([3]; Postemergence, 250 g ai/ha): 40
- Plant response rating ([3]; Postemergence, 500 g ai/ha): 60
- Plant response rating ([3]; Preemergence, 31 g ai/ha): 0
- Plant response rating ([3]; Preemergence, 62 g ai/ha): 40
- Plant response rating ([3]; Preemergence, 125 g ai/ha): 70
- Plant response rating ([3]; Preemergence, 250 g ai/ha): 70
- Plant response rating ([3]; Preemergence, 500 g ai/ha): 70
- Plant response rating ([4]; Postemergence, 31 g ai/ha): 5
- Plant response rating ([4]; Postemergence, 62 g ai/ha): 10
- Plant response rating ([4]; Postemergence, 125 g ai/ha): 15
- Plant response rating ([4]; Postemergence, 250 g ai/ha): 20
- Plant response rating ([4]; Postemergence, 500 g ai/ha): 20
- Plant response rating ([4]; Preemergence, 31 g ai/ha): 0
- Plant response rating ([4]; Preemergence, 62 g ai/ha): 0
- Plant response rating ([4]; Preemergence, 125 g ai/ha): 5
- Plant response rating ([4]; Preemergence, 250 g ai/ha): 15
- Plant response rating ([4]; Preemergence, 500 g ai/ha): 30
- Plant response rating ([5]; Postemergence, 31 g ai/ha): 10
- Plant response rating ([5]; Postemergence, 62 g ai/ha): 25
- Plant response rating ([5]; Postemergence, 125 g ai/ha): 35
- Plant response rating ([5]; Postemergence, 250 g ai/ha): 50
- Plant response rating ([5]; Postemergence, 500 g ai/ha): 75
- Plant response rating ([5]; Preemergence, 31 g ai/ha): 20
- Plant response rating ([5]; Preemergence, 62 g ai/ha): 40
- Plant response rating ([5]; Preemergence, 125 g ai/ha): 100
- Plant response rating ([5]; Preemergence, 250 g ai/ha): 100
- Plant response rating ([5]; Preemergence, 500 g ai/ha): 100
- Plant response rating ([6]; Postemergence, 31 g ai/ha): 0
- Plant response rating ([6]; Postemergence, 62 g ai/ha): 0
- Plant response rating ([6]; Postemergence, 125 g ai/ha): 10
- Plant response rating ([6]; Postemergence, 250 g ai/ha): 15
- Plant response rating ([6]; Postemergence, 500 g ai/ha): 25
- Plant response rating ([6]; Preemergence, 31 g ai/ha): 0
- Plant response rating ([6]; Preemergence, 62 g ai/ha): 0
- Plant response rating ([6]; Preemergence, 125 g ai/ha): 20
- Plant response rating ([6]; Preemergence, 250 g ai/ha): 25
- Plant response rating ([6]; Preemergence, 500 g ai/ha): 25
- Plant response rating ([7]; Postemergence, 31 g ai/ha): 20
- Plant response rating ([7]; Postemergence, 62 g ai/ha): 50
- Plant response rating ([7]; Postemergence, 125 g ai/ha): 75
- Plant response rating ([7]; Postemergence, 250 g ai/ha): 80
- Plant response rating ([7]; Postemergence, 500 g ai/ha): 90
- Plant response rating ([7]; Preemergence, 31 g ai/ha): 60
- Plant response rating ([7]; Preemergence, 62 g ai/ha): 80
- Plant response rating ([7]; Preemergence, 125 g ai/ha): 90
- Plant response rating ([7]; Preemergence, 250 g ai/ha): 98
- Plant response rating ([7]; Preemergence, 500 g ai/ha): 100
- Plant response rating ([8]; Postemergence, 31 g ai/ha): 20
- Plant response rating ([8]; Postemergence, 62 g ai/ha): 20
- Plant response rating ([8]; Postemergence, 125 g ai/ha): 40
- Plant response rating ([8]; Postemergence, 250 g ai/ha): 40
- Plant response rating ([8]; Postemergence, 500 g ai/ha): 45
- Plant response rating ([8]; Preemergence, 31 g ai/ha): 0
- Plant response rating ([8]; Preemergence, 62 g ai/ha): 0
- Plant response rating ([8]; Preemergence, 125 g ai/ha): 20
- Plant response rating ([8]; Preemergence, 250 g ai/ha): 90
- Plant response rating ([8]; Preemergence, 500 g ai/ha): 100
- Plant response rating ([9]; Postemergence, 31 g ai/ha): 30
- Plant response rating ([9]; Postemergence, 62 g ai/ha): 80
- Plant response rating ([9]; Postemergence, 125 g ai/ha): 100
- Plant response rating ([9]; Postemergence, 250 g ai/ha): 40
- Plant response rating ([9]; Postemergence, 500 g ai/ha): 100
- Plant response rating ([9]; Preemergence, 31 g ai/ha): 100
- Plant response rating ([9]; Preemergence, 62 g ai/ha): 100
- Plant response rating ([9]; Preemergence, 125 g ai/ha): 100
- Plant response rating ([9]; Preemergence, 250 g ai/ha): 100
- Plant response rating ([9]; Preemergence, 500 g ai/ha): 100
- Plant response rating ([10]; Postemergence, 31 g ai/ha): 0
- Plant response rating ([10]; Postemergence, 62 g ai/ha): 0
- Plant response rating ([10]; Postemergence, 125 g ai/ha): 5
- Plant response rating ([10]; Postemergence, 250 g ai/ha): 5
- Plant response rating ([10]; Postemergence, 500 g ai/ha): 10
- Plant response rating ([10]; Preemergence, 31 g ai/ha): 0
- Plant response rating ([10]; Preemergence, 62 g ai/ha): 0
- Plant response rating ([10]; Preemergence, 125 g ai/ha): 10
- Plant response rating ([10]; Preemergence, 250 g ai/ha): 50
- Plant response rating ([10]; Preemergence, 500 g ai/ha): 70
- Plant response rating ([11]; Postemergence, 31 g ai/ha): 20
- Plant response rating ([11]; Postemergence, 62 g ai/ha): 20
- Plant response rating ([11]; Postemergence, 125 g ai/ha): 20
- Plant response rating ([11]; Postemergence, 250 g ai/ha): 20
- Plant response rating ([11]; Postemergence, 500 g ai/ha): 20
- Plant response rating ([11]; Preemergence, 31 g ai/ha): 0
- Plant response rating ([11]; Preemergence, 62 g ai/ha): 20
- Plant response rating ([11]; Preemergence, 125 g ai/ha): 100
- Plant response rating ([11]; Preemergence, 250 g ai/ha): 100
- Plant response rating ([11]; Preemergence, 500 g ai/ha): 100
